Assay results taken from patent publication US20260354376A1, “AGENT FOR IMPROVING ENVIRONMENTAL STRESS TOLERANCE” (OAT Agrio Co., Ltd., priority 2023, published 2026).

Legend:
Format in all cases: in vivo
paddy rice (Koshihikari) [1] = assay: Test Example 3: growth-promoting effect in rice hydroponics (regenerated root length, 25 °C); conditions: 25° C. (Growth Promotion), 6 days, untreated = 100
Procedure: In Example 3, a liquid culture medium prepared by diluting OAT House Fertilizer (registered trademark) Formulation A, manufactured by OAT Agrio Co., Ltd., was placed in an erlenmeyer flask. The capsanthin concentration in the paprika pigment (manufactured by San-Ei Gen F. F. I., Inc.) was measured by high performance liquid chromatography at General Incorporated Association Japan Food Research Laboratories. As a result, about 221 mg of capsanthin was contained in 100 g of the paprika pigment. The measurement conditions were as follows. • Model: LC-20 (manufactured by Shimadzu Corporation) • Detector: UV-VIS absorption spectrometer SPD-20AV (manufactured by Shimadzu Corporation) • Column: Shim-pack CLC-SIL (M) (size: 4.6 mm×150 mm) (manufactured by Shimadzu Corporation) • Column temperature: 30 °C. • Mobile phase: mixture of hexane and acetone (81:19) • Flow rate: 1.1 mL/min • Measurement wavelength: 474 nm • Injection volume: 30 μL
Next, paddy rice (Koshihikari) was grown to seedlings in culture soil, and then the roots of the rice were cut to a predetermined length. Five of the cut seedlings were inserted into each erlenmeyer flask containing the above-described liquid culture medium. Then, after cultivation at 25 °C for 6 days, the length of the roots of the rice was measured, and the length of regenerated roots was calculated.
In Comparative Example 5, the same test as in Example 3 was repeated, except for using the liquid culture medium not containing the capsanthin or paprika pigment.
In Reference Example 3, the same test as in Example 3 was repeated, except for using the liquid culture medium containing a commercially available material for improving high-temperature tolerance (material A) at the dilution factor shown in Table 3.
The dilution factor is shown for Reference Example 3, because the content of the active ingredient in the commercially available product is unknown.
The results of Example 3 and Reference Example 3 are expressed as the ratio (%) with respect to the result of Comparative Example 5 (untreated group) taken as 100.

paddy rice (Koshihikari) [2] = assay: Test Example 5: salt stress tolerance improvement in rice hydroponics (regenerated root length, sodium chloride); conditions: sodium chloride 120 mM, 6 days, untreated = 100
Procedure: (§1) In Example 5, a liquid culture medium prepared by diluting OAT House Fertilizer (registered trademark) Formulation A, manufactured by OAT Agrio Co., Ltd., was placed in an erlenmeyer flask. Then, sodium chloride was added to the liquid culture medium to give a final concentration of 120 mM, and the capsanthin or paprika pigment was added to the liquid culture medium to give the concentrations shown in Table 3. Next, paddy rice (Koshihikari) was grown to seedlings in culture soil, and then the roots were cut to a predetermined length. Five of the seedlings were inserted into each erlenmeyer flask. Then, after cultivation for 6 days, the length of the roots of the rice was measured, and the length of regenerated roots was calculated.
In Comparative Example 7, the same test as in Example 5 was repeated, except for using the liquid culture medium not containing the capsanthin or paprika pigment.
In Reference Example 4, the same test as in Example 5 was repeated, except for using the liquid culture medium containing a commercially available material for improving salt tolerance (material B) at the dilution factor shown in Table 5, instead of the capsanthin and paprika pigment.
The results of Example 5 and Reference Example 4 are expressed as the ratio (%) with respect to the result of Comparative Example 7 (untreated group) taken as 100.

paddy rice (Koshihikari) [3] = assay: Test Example 4: high-temperature stress tolerance improvement in rice hydroponics (regenerated root length, 35 °C); conditions: for Ratio to Untreated Group (length of regenerated roots): 35 °C (High-Temperature Stress), 6 days, untreated = 100
Procedure: as §1, with “4,” for “5,”, “Then,” for “Then, sodium chloride was added to”, “above-described” for “liquid culture medium to give a final concentration of 120 mM, and the”, “4.” for “3.”, “cultivation at 35 °C” for “cultivation”
In Comparative Example 6, the same test as in Example 4 was repeated, except for using the liquid culture medium not containing the capsanthin or paprika pigment.
The results of Example 4 are expressed as the ratio (%) with respect to the result of Comparative Example 6 (untreated group) taken as 100.

[4] = test system: wheat (variety: Chikugoizumi); assay: Test Example 11: dryness stress tolerance improvement on wheat (weight of grains per plant); conditions: dryness stress (irrigation about half), 0.1%
Description: In Example 11, wheat (variety: Chikugoizumi) was sown in 1/5000a Wagner pots and cultivated at a density of 2 plants/pot. Next, all pots were irrigated with the same amount of tap water until the ear-emergence stage of wheat, and irrigation with a chemical solution was started after the ear emergence. In this test, dryness stress was induced by reducing the amount of irrigation to about half of the normal amount. After yellow ripening of the wheat was confirmed, the aboveground portions of the wheat were harvested, and the weight of grains per plant was investigated. A 30 ppm aqueous solution of the paprika pigment was used as the chemical solution.
In Comparative Example 13, the same test as in the test of Example 11 using the paprika pigment was repeated, except for using water for irrigation after the ear emergence.
In Reference Example 10, the same test as in the test of Example 11 using the paprika pigment was repeated, except for using a commercially available material for improving salt tolerance (material B) at the dilution factor shown in Table 11. […]
The results of Example 11, and Reference Examples 10 and 11 are expressed as the ratio (%) with respect to the result of Comparative Example 13 (untreated group) taken as 100.

Row | SMILES | Ratio to Untreated Group (length of regenerated roots) (paddy rice (Koshihikari) [1]; capsanthin 0.00000663 ppm) [%] | Ratio to Untreated Group (length of regenerated roots) (paddy rice (Koshihikari) [1]; capsanthin 0.0000663 ppm) [%] | Ratio to Untreated Group (length of regenerated roots) (paddy rice (Koshihikari) [1]; capsanthin 0.000221 ppm) [%] | Ratio to Untreated Group (length of regenerated roots) (paddy rice (Koshihikari) [1]; capsanthin 0.00221 ppm) [%] | Ratio to Untreated Group (length of regenerated roots) (paddy rice (Koshihikari) [2]; capsanthin 0.0000663 ppm) [%] | Ratio to Untreated Group (length of regenerated roots) (paddy rice (Koshihikari) [2]; capsanthin 0.000221 ppm) [%] | Ratio to Untreated Group (length of regenerated roots) (paddy rice (Koshihikari) [2]; capsanthin 0.00221 ppm) [%] | Ratio to Untreated Group (length of regenerated roots) (paddy rice (Koshihikari) [2]; capsanthin 0.00663 ppm) [%] | Ratio to Untreated Group (length of regenerated roots) (paddy rice (Koshihikari) [2]; capsanthin 0.0221 ppm) [%] | Ratio to Untreated Group (length of regenerated roots) (paddy rice (Koshihikari) [2]; capsanthin 0.0663 ppm) [%] | Ratio to Untreated Group (length of regenerated roots) (paddy rice (Koshihikari) [3]; capsanthin 0.00000663 ppm) [%] | Ratio to Untreated Group (length of regenerated roots) (paddy rice (Koshihikari) [3]; capsanthin 0.0000663 ppm) [%] | Ratio to Untreated Group (length of regenerated roots) (paddy rice (Koshihikari) [3]; capsanthin 0.000221 ppm) [%] | Ratio to Untreated Group (length of regenerated roots) (paddy rice (Koshihikari) [3]; capsanthin 0.00221 ppm) [%] | Ratio to Untreated Group (length of regenerated roots) (paddy rice (Koshihikari) [3]; capsanthin 0.00663 ppm) [%] | Ratio to Untreated Group (length of regenerated roots) (paddy rice (Koshihikari) [3]; capsanthin 0.0221 ppm) [%] | Ratio to Untreated Group (length of regenerated roots) (paddy rice (Koshihikari) [3]; capsanthin 0.0663 ppm) [%] | effect compared with paprika pigment (in words) (paddy rice (Koshihikari) [3]; Tables 3 to 5 (25 °C, 35 °C, sodium chloride), same concentrations of capsanthin) | Weight of Grains, Average ([4]; untreated 7.3) [g DW/Plant] | Weight of Grains, Ratio to Untreated Group ([4]; untreated = 100) [%]
1 | CC1=C(/C=C/C(C)=C/C=C/C(C)=C/C=C/C=C(C)/C=C/C=C(C)/C=C/C(=O)[C@]2(C)C[C@@H](O)CC2(C)C)C(C)(C)C[C@H](O)C1 [Capsanthin, capsanthin] | 104 | 102 | 102 | 108 | 104 | 103 | 107 | 114 | 111 | 126 | 115 | 132 | 113 | 122 | 114 | 109 | 140 | comparable effect to that of the paprika pigment |  | 
2 | CC(=O)O [Potassium Acetate, potassium acetate] |  |  |  |  |  |  |  |  |  |  |  |  |  |  |  |  |  |  | 9.3 | 126
